Experiment [1] deals with T1, CDK2/Cyclin E1 (Homo sapiens, UniProt P24941). In words: Caliper LabChip EZ Reader mobility shift assay. Format: biochemical. The note with it: 2.5 nM CDK2/Cyclin E1(14-475), 100 μM ATP, 30 min preincubation; read-out: Caliper Assay (CDK2/CCNE1): IC50. The procedure, abridged: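 Mobility-shift assay with CDK2/Cyclin E1(14-475) at 2.5 nM, 100 μM ATP and 1.5 μM 5-FAM-QSPKKG-CONH2 in HEPES pH 7.5 buffer with 0.1% DMSO. Compounds were preincubated with enzyme and ATP for 30 min, the reaction ran 100 min and was stopped with EDTA. IC50 came from a four-parameter fit of normalized conversion ratio.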

Experiment [2] addresses T1, CDK2/Cyclin E1. In words: ADP-Glo Luminescent Kinase Assay (CDK2/E1-37C). Format: biochemical. The note with it: 0.18 nM CDK2/Cyclin E1, 100 μM ATP, Histone H1, 37° C.; read-out: ADPGLO (CDK2/E1-37C): IC50. In a few lines:
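Activated CDK2/Cyclin E1 (0.18 nM final) preincubated with compound 60 min at 37 °C, then reacted with 100 μM ATP and Histone H1 ([…]) for 90 min at 37 °C in HEPES pH 7.5 buffer. ADP-Glo luminescence normalized to % activity; IC50 from four-parameter fit.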
For orientation: ADP-Glo turns the ADP formed in a reaction into a luminescent signal.

The test system of a further experiment is Kuramochi cells RB-WT. In words: IncuCyte Kuramochi cell proliferation assay, RB-WT. Particulars: 72 hours, cell count. Format: cell-based. The procedure, abridged: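 mApple-H2B-labelled Kuramochi cells were treated with a 10-point, half-log series (top 20 µM) and imaged at 0 and 72 h. Fluorescent nuclei were counted, and the 0–72 h fold change was normalized to DMSO wells. GI50 came from dose-response fits.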

Experiment [3] has as its system mouse models of polycystic kidney disease. The note with it: Bukanov et al., Nature 2006; cited from earlier work.

Results on eight compounds are retold here after patent US20260034123A1 (Cedilla Therapeutics, Inc., priority 2022, published 2026).

Structures are written as SMILES. Where “and” joins values, the source holds several entries; their conditions need not be identical. Equal entries are not always repeated.

Take `Cc1c(COC[C@@H]2CN(C(=O)c3cncs3)CC23CN(C(=O)[C@H]2CC2(C)C)C3)cccc1C1CCOCC1` [Compound I-31, ((S)-2-((S)-2,2-dimethylcyclopropanecarbonyl)-8-(((2-methyl-3-(tetrahydro-2H-pyran-4-yl)benzyl)oxy)methyl)-2,6-diazaspiro[3.4]octan-6-yl)(thiazol-5-yl)methanone]: the IC50 on CDK2/Cyclin E1 [1] was 0.1 to 1 µM; on CDK2/Cyclin E1 [2], 0.5 to 5 µM; with Kuramochi cells RB-WT, 5 to 10 µM.

As for `CC1(C)C[C@@H]1C(=O)N1CC2(CN(C(=O)c3cncs3)C[C@H]2COCc2cccc(-c3ccc(C(F)(F)F)cc3)n2)C1` [Compound I-34, ((S)-2-((S)-2,2-dimethylcyclopropane-1-carbonyl)-8-(((6-(4-(trifluoromethyl)phenyl)pyridin-2-yl)methoxy)methyl)-2,6-diazaspiro[3.4]octan-6-yl)(thiazol-5-yl)methanone], the figures for the IC50 on CDK2/Cyclin E1 [1], on CDK2/Cyclin E1 [2] and with Kuramochi cells RB-WT were 0.01 to 0.1 µM, 0.5 to 5 µM and 5 to 10 µM, respectively.

Take `CC1(C)C[C@@H]1C(=O)N1CC2(CN(C(=O)c3cncs3)C[C@H]2COCc2cccc(-c3ccccc3)n2)C1` [Compound I-36, ((S)-2-((S)-2,2-dimethylcyclopropanecarbonyl)-8-(((6-phenylpyridin-2-yl)methoxy)methyl)-2,6-diazaspiro[3.4]octan-6-yl)(thiazol-5-yl)methanone]: the IC50 at CDK2/Cyclin E1 [1] was 0.1 to 1 µM; on CDK2/Cyclin E1 [2], 5 to 10 µM; in the experiment on Kuramochi cells RB-WT, over 10 µM.

As for `CC1(C)C[C@@H]1C(=O)N1CC2(CN(C(=O)c3cncs3)C[C@H]2COCc2ccn(C3CCCC3)n2)C1` [Compound I-38, ((S)-8-(((1-cyclopentyl-1H-pyrazol-3-yl)methoxy)methyl)-2-((S)-2,2-dimethylcyclopropane-1-carbonyl)-2,6-diazaspiro[3.4]octan-6-yl)(thiazol-5-yl)methanone], the IC50 on CDK2/Cyclin E1 [1] was 0.1 to 1 µM; at CDK2/Cyclin E1 [2], over 10 µM; in the experiment on Kuramochi cells RB-WT, over 10 µM.

Turning to `CC1(C)C[C@@H]1C(=O)N1CC2(CN(C(=O)c3cncs3)C[C@H]2COCc2cccc(C3CCOCC3)c2)C1` [Compound I-39, ((S)-2-((S)-2,2-dimethylcyclopropane-1-carbonyl)-8-(((3-(tetrahydro-2H-pyran-4-yl)benzyl)oxy)methyl)-2,6-diazaspiro[3.4]octan-6-yl)(thiazol-5-yl)methanone], the IC50 at CDK2/Cyclin E1 [1] is 0.1 to 1 µM; at CDK2/Cyclin E1 [2] it was over 10 µM; in the experiment with Kuramochi cells RB-WT, over 10 µM.

On to `CC1(C)C[C@@H]1C(=O)N1CC2(CN(C(=O)c3cncs3)C[C@H]2COCc2cccc(C3CCOCC3)n2)C1` [Compound I-49, (2-((S)-2,2-dimethylcyclopropane-1-carbonyl)-8-(((6-(tetrahydro-2H-pyran-4-yl)pyridin-2-yl)methoxy)methyl)-2,6-diazaspiro[3.4]octan-6-yl)(thiazol-5-yl)methanone], for which the IC50 at CDK2/Cyclin E1 [1] is 1 to 10 µM and 0.1 to 1 µM; on CDK2/Cyclin E1 [2] it was 5 to 10 µM; with Kuramochi cells RB-WT, over 10 µM.

Turning to `O=C(O)C(Cc1cccc(-c2ccc(C(F)(F)F)cc2)n1)CC1CN(C(=O)c2cnn(Cc3ccc(C(F)(F)F)cc3)c2)CC12CN(C(=O)C1(C(F)(F)F)CC1)C2` (stereo not shown) [Compound I-50, 2-((6-(1-(4-(trifluoromethyl)benzyl)-1H-pyrazole-4-carbonyl)-2-(1-(trifluoromethyl)cyclopropane-1-carbonyl)-2,6-diazaspiro[3.4]octan-8-yl)methyl)-3-(6-(4-(trifluoromethyl)phenyl)pyridin-2-yl)propanoic acid], the IC50 on CDK2/Cyclin E1 [1], at CDK2/Cyclin E1 [2] and in the experiment with Kuramochi cells RB-WT was over 10 µM each time.

`CC[C@H](CO)Nc1nc(NCc2ccccc2)c2ncn(C(C)C)c2n1` [roscovitine]: the “arrest of cystic kidney disease” value in experiment [3] is on record as “effective arrest of cystic kidney disease”.
